According to patent US20100022600A1, “METHODS AND COMPOSITIONS FOR TREATING CENTRAL NERVOUS SYSTEM TUMORS” (priority 2006, published 2010):

How the values were obtained:
[1] = test system: C6 glioma cells injected in rat striata; assay: C6 rat glioma model, tumor volume and histology; type: in vivo; conditions: for reduction of tumor volume compared to vehicle: 21 d
Protocol: Spraque-Dawley rats (Charles River Laboratories, Sulzfeld, Germany), weighting 200-250 g were used. Animals were housed in groups of two under standard conditions at a temperature of 22° C.±1 and a 12-h light-dark cycle with free access to food and water. Experiments were carried out in accordance with the declaration of Helsinki and were approved by the local ethical committee for animal experiments. Before implantation, 85-90% confluent C6 cells were trypsinized, rinsed with DMEM+10% fetal calf serum, and centrifuged at 1000 rpm for 4 min. The cell pellet was resuspended in DMEM and placed on ice. Concentration of viable cells was adjusted to 1×10^5 cells/1 μl of DMEM. Each rat was anesthetized and placed in a stereotactic frame (David Kopf Instruments, Tujunga, Calif., USA), a hole was drilled at AP 0.0, R -3.0 relative to bregma according to the stereotaxic atlas of […], 1963). Tumor cells were injected at a rate of 0.5 μl/s, using a 2 μl Hamilton (#2701) syringe (Reno, Nev., USA) with a 26 s-gauge needle mounted on a stereotactic holder at a depth of 5 mm. […] For intracerebral administration of pio/vehicle (DMSO), the tip of an Alzet-brain-infusion-kit (Cupertino, Calif., USA) was placed in a depth of 5 mm, connected to a 2ML4 Alzet osmotic pump (Cupertino, Calif., USA). Drug administration began 4 h after surgery. […] The pumps were filled with 20 μM pio solved in PBS or vehicle (DMSO, 0.1% final concentration) solved in PBS. Animals were randomly distributed in two groups, treated with pio filled pumps (n=26) or vehicle filled pumps (n=26). Thereafter skull was cleaned and the incision sutured. […] Control animals received Purina chow without additions. Rats were allowed free access to the chow. Tumors were allowed to grow and animals were weighed daily. […] Brains were serially sectioned at 10 μm using a cryostat (Leica, Jung CMI800, Germany). Sections for hematoxylin-eosin (HE)-staining were placed onto uncoated slides. Sections intended for use in immunoreactivity assays were placed onto coded slides (Fisher finest, premium; Houston, Tex., USA). Sections were routinely HE-stained for histomorphological assessment and measurement of tumor volume as well as immunohistochemically processed for Ki-67-, BAX, cleaved caspase-3-expression, MMP9, CS-56 and BrdU-incorporation. Images of HE-stained sections containing the tumor were captured with a SPOT model 1.3 camera (Diagnostic Instruments, Inc., Sterling Heights, Mich., USA) using a 1× objective and images processed using NIH Image 1.62 software (Bethesda, Md., USA). The tumor area of each section was manually outlined by a blinded observer using the freehand selection tool to measure tumor area in mm^2. The area was then multiplied by the section thickness (10 μm section, 10 sections/HE stain) to achieve a section volume measurement. Volumes of all sections were added to calculate the total volume of each tumor. Tumor volumes for five/six animals of every group were measured.

Bax = assay: Western blot of Bax in whole-hemisphere lysates, C6 rat glioma model; type: in vivo
Protocol: (§1) For western-blot analysis, tumor-containing hemispheres were homogenized in Tris-HCl [50 mM Tris-HCl pH8, 120 mM NaCl, 5 mM EDTA, 0.5% (v/v) NP-40, […] phenylmethylsulfonyl fluoride (PMSF)] and sonicated. Homogenates were collected by centrifugation (15 min 11000 g. 4° C.) and protein concentration in the supernatant was determined using the Bio-Rad Protein Assay (Biorad, Munich, Germany). Lysates (20-40 μg) were separated on a 7% (w/v) sodium dodecyl sulfate (SDS)-polyacrylamide gel under reducing conditions and transferred to a PVDF membrane (Millipore, Bedford, Mass., USA). Non-specific binding was blocked by incubation with 5% (w/v) skimmed milk in TBS for 2 h. Following incubation with the primary antibody overnight at 4° C. [rabbit anti-BAX 1:1000, rabbit anti-cleaved caspase-3 1:1000, mouse […] 1:1000, goat anti-MMP-9 1:1000 in TBS containing 0.1% (v/v) Tween 20] membranes were washed three times in TBS/Tween for 5 min and subsequently incubated for 120 min in TBS/Tween containing secondary peroxidase-conjugated antibody at room temperature (anti-rabbit 1:1000, anti-mouse 1:1000; anti-goat 1:1000 respectively). Signals were visualized by chemoluminescence (Pierce, Rockford, Ill., USA) and band intensities were quantified with NIH Image 1.62 software (Bethesda, Md., USA).

MMP-9 = MMP-9 expression in vivo (western blot, immunohistochemistry); set-up: species or system rat
Protocol: as §1, with “Md., USA). Frozen brain sections were first blocked with 5% normal goat serum or normal horse serum in PBS and subsequently incubated with rabbit anti-Ki-67 antibody (1:200 dilution), mouse anti-CS-56 (1:100 dilution), goat anti-MMP-9 (1:100 dilution) or rabbit anti-cleaved caspase-3 antibody (1:200 dilution) at 4° C. overnight. Sections were washed extensively with PBS before incubation with secondary antibodies. Incubation was carried at room temperature for 1 h. After washing with PBS three times, stained slides were mounted with PBS/glycerol (1:1) and viewed under a fluorescent microscope (Leica, Germany).” for “Md., USA).”

CCc1ccc(CCOc2ccc(CC3SC(=O)NC3=O)cc2)nc1 (stereo not drawn) [pioglitazone, 5-[4-[2-(5-ethylpyridin-2-yl)ethoxyl]benzyl]thiazolidine-2,4-dione]
tumor volume compared to vehicle, in words ([1]; intracerebral, 3 and 6 days): no significant differences | tumor volume compared to vehicle, in words ([1]; intracerebral, 9, 14 and 21 days): decreased significantly | reduction of tumor volume compared to vehicle ([1]; intracerebral, pio 20 μM via osmotic pump): 83% | reduction of tumor volume compared to vehicle ([1]; oral treatment (in chow)): 77% | reduction of tumor volume compared to vehicle ([1]; oral treatment (in chow), listed as pio): 76.9% | histological evaluation of tumor margins and invasiveness ([1]; pio treated in vivo gliomas): more defined tumor margins and decreased invasiveness | Bax-protein levels versus vehicle (densitometry), in words (Bax; 3, 6, 9 and 14 d): significant difference | induction of Bax protein (densitometry) (Bax; 6 d of pio treatment): 1.66 fold | upregulation of proapoptotic proteins (Bax; after 21 days of treatment (data not shown)): not associated with an upregulation of proapoptotic proteins | MMP-9 positive staining (immunoreactivity) (MMP-9; tumor margins and surrounding healthy brain tissue): reduced MMP-9 positive staining | MMP-9 expression (western blot) (MMP-9; whole-hemisphere lysates): almost completely suppressed | reduction of MMP-9 expression (densitometry) (MMP-9; whole-hemisphere lysates): 81%
